Some test systems named below: SK-MEL-28; LOX IMVI; SF-539; SNB-19; SW-620; Hs-578T; CAKI-1; IGROV-1; RPMI-8226; EKVX; ACHN; Malme-3M; COLO 205; PC-3; TK-10; MOLT-4; NCI/ADR-RES; K562; SK-OV-3; SK-MEL-2.
What all share (experiment): NCI-60 cell line screen, 48 h

The text below walks through data of ChEMBL document CHEMBL1201862, “PubChem BioAssay data set” (2004).

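Values below derive from 48-hour exposures of cells grown in 96-well plates, with endpoints linearly interpolated between the two concentrations bracketing the appropriate inhibition level. The concentration for 50% growth inhibition is given as GI50.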 Active and inactive are the calls of the source. Rule as the data show it: active = GI50 up to about 1.1 µM and inactive = higher.

As to `CC(=O)OCC1OC(c2nnc(C)o2)=CC(OC(C)=O)C1OC(C)=O` (stereo not drawn), the GI50 with SK-MEL-28, with LOX IMVI, in the test with SF-539, in the test with SNB-19, in the test on SW-620 and in the test on Hs-578T was > 100 µM (inactive) each time. Further, the GI50 in the test on CAKI-1, with IGROV-1, in the test with RPMI-8226, in the test with EKVX, with ACHN and in the test on Malme-3M was > 100 µM (inactive) each time. Further, the GI50 in the test with COLO 205, in the test with PC-3, in the test with TK-10, with MOLT-4, in the test on NCI/ADR-RES and in the test with K562 was > 100 µM (inactive) in each case.

On to `CC(C)CC1c2[nH]c3ccccc3c2C[C@H]2C(=O)NC(CCC(=O)OC(C)(C)C)C(=O)N12` (stereo partly drawn), for which the GI50 is 52.1 µM (inactive) with SK-MEL-28; 22.9 µM (inactive) in the test on LOX IMVI; 42.5 µM (inactive) in the test on SK-OV-3; 37.3 µM (inactive) with SNB-19; 45 µM (inactive) in the test with SW-620; 15.1 µM (inactive) in the test on Hs-578T. In addition, the GI50 in the test with CAKI-1 was 42.4 µM (inactive); in the test on IGROV-1, 33.5 µM (inactive); in the test on RPMI-8226, 25.8 µM (inactive); in the test with EKVX, 35.2 µM (inactive); with ACHN it was 30.8 µM (inactive); with Malme-3M, 24.4 µM (inactive). For the same compound, the GI50 is 18.4 µM (inactive) with SK-MEL-2; 20.6 µM (inactive) with COLO 205; 23.4 µM (inactive) in the test on PC-3; 25.8 µM (inactive) in the test with TK-10; 22.6 µM (inactive) in the test with MOLT-4; 30.3 µM (inactive) in the test on NCI/ADR-RES. The GI50 in the test with K562 was 36.9 µM (inactive).

For the compound `N/C(=N\c1ccc(Cl)cc1)NS(=O)(=O)c1ccc(S(=O)(=O)c2ccccc2)s1`, the GI50 with SK-MEL-28 is 19.7 µM (inactive); in the test on LOX IMVI, 16.3 µM (inactive); with SK-OV-3 it was 38.7 µM (inactive); with SF-539 it was 22.7 µM (inactive); with SNB-19, 33.8 µM (inactive); in the test on SW-620 it was 19 µM (inactive). Further, the GI50 in the test on Hs-578T is 24 µM (inactive); in the test on IGROV-1, 13.8 µM (inactive); in the test on RPMI-8226, 16.6 µM (inactive); in the test with EKVX, 12.9 µM (inactive); in the test with ACHN, 20.9 µM (inactive); in the test with Malme-3M, 20 µM (inactive). The GI50 in the test with SK-MEL-2 was 14.1 µM (inactive); in the test on COLO 205 it was 18.4 µM (inactive); in the test with PC-3, 14.2 µM (inactive); in the test with TK-10, 21.2 µM (inactive); in the test with MOLT-4, 18 µM (inactive); in the test with NCI/ADR-RES it was 18 µM (inactive). Further, in the test with K562, the GI50 was 18.8 µM (inactive).

Turning to `CN(C)CCNc1ncnc2[nH]c(-c3ccc4ccccc4c3)nc12`, the GI50 in the test with SK-MEL-28, in the test on LOX IMVI, with SK-OV-3, in the test with SNB-19, in the test with SW-620 and in the test on Hs-578T was > 100 µM (inactive) each time. The GI50 in the test on CAKI-1, in the test on IGROV-1, with RPMI-8226, with EKVX, in the test with ACHN and with Malme-3M was > 100 µM (inactive) each time. Further, the GI50 in the test on SK-MEL-2, in the test with COLO 205, in the test on PC-3, in the test with TK-10, in the test on MOLT-4 and in the test with NCI/ADR-RES was > 100 µM (inactive) each time. Besides, the GI50 in the test on K562 was > 100 µM (inactive).

As to `COc1cc2c(cc1OC)C(=O)C1(C2)[C@H](c2ccccc2)C2C(=O)c3cc(OC)c(OC)cc3C2[C@H]1c1ccccc1` (stereo partly drawn), the GI50 in the test with SK-MEL-28, in the test on LOX IMVI, in the test with SK-OV-3, in the test with SF-539, in the test on SNB-19 and in the test with SW-620 was > 100 µM (inactive) in each case. For the same compound, the GI50 with Hs-578T is > 100 µM (inactive); in the test on CAKI-1, 0.259 µM (active); in the test with IGROV-1 it was > 100 µM (inactive); in the test on RPMI-8226, > 100 µM (inactive); in the test on EKVX, > 100 µM (inactive); in the test on ACHN, 25.8 µM (inactive). The GI50 with Malme-3M, with COLO 205, in the test with PC-3, with TK-10, in the test with MOLT-4 and in the test with NCI/ADR-RES was > 100 µM (inactive) throughout. The GI50 in the test on K562 is > 100 µM (inactive).

For the compound `O=C(Nc1ccc(Cl)cc1)NS(=O)(=O)c1coc2cc(F)ccc2c1=O`, the GI50 with SK-MEL-28 is > 100 µM (inactive); with LOX IMVI, > 100 µM (inactive); in the test with SK-OV-3, > 100 µM (inactive); with SF-539, 87.7 µM (inactive); in the test with SNB-19, > 100 µM (inactive); with SW-620, > 100 µM (inactive). The GI50 was > 100 µM (inactive) with Hs-578T; > 100 µM (inactive) in the test on CAKI-1; > 100 µM (inactive) in the test on IGROV-1; > 100 µM (inactive) with EKVX; 16.4 µM (inactive) in the test with ACHN; > 100 µM (inactive) in the test with Malme-3M. The GI50 in the test with SK-MEL-2 is 52.6 µM (inactive); in the test on COLO 205, > 100 µM (inactive); in the test on PC-3 it was > 100 µM (inactive); in the test on TK-10 it was > 100 µM (inactive); with MOLT-4 it was > 100 µM (inactive); with NCI/ADR-RES it was > 100 µM (inactive). In addition, the GI50 in the test on K562 was 19.7 µM (inactive).

For `CC(=O)OCc1cn(S(=O)(=O)c2ccc(C)cc2)cn1`, the GI50 in the test with SK-MEL-28 was > 100 µM (inactive); in the test on LOX IMVI, 47.5 µM (inactive); in the test with SK-OV-3, > 100 µM (inactive); in the test on SF-539, 16.4 µM (inactive); with SNB-19, > 100 µM (inactive); in the test on SW-620 it was 43 µM (inactive). The GI50 in the test with Hs-578T is 36.5 µM (inactive); in the test with CAKI-1, > 100 µM (inactive); in the test on IGROV-1 it was > 100 µM (inactive); with RPMI-8226 it was > 100 µM (inactive); in the test on EKVX, > 100 µM (inactive); in the test with ACHN it was > 100 µM (inactive). Also, the GI50 was > 100 µM (inactive) with Malme-3M; 73.6 µM (inactive) in the test with COLO 205; > 100 µM (inactive) in the test on PC-3; > 100 µM (inactive) with TK-10; 46.5 µM (inactive) with MOLT-4; > 100 µM (inactive) in the test on NCI/ADR-RES. In addition, the GI50 with K562 was > 100 µM (inactive).

Consider `CC1(C)CNC(=O)C2(CCCO2)CNC(C)(C)CNC(=O)C2(CCCO2)CN1` (stereo not drawn), for which the GI50 with SK-MEL-28, in the test on LOX IMVI, in the test with SK-OV-3, in the test with SF-539, in the test on SNB-19 and with SW-620 was > 10 µM (inactive) each time. The GI50 with Hs-578T, in the test on CAKI-1, with IGROV-1, in the test with RPMI-8226, with ACHN and with Malme-3M was > 10 µM (inactive) each time. In addition, the GI50 in the test on COLO 205, with PC-3, in the test with TK-10, with MOLT-4, with NCI/ADR-RES and with K562 was > 10 µM (inactive) each time.

As for `O=C(Cn1c(C(=O)/C=C/c2ccc(Cl)c(Cl)c2)nc2ccccc21)c1ccccc1`, the GI50 is 35.3 µM (inactive) in the test with SK-MEL-28; 17.9 µM (inactive) in the test with LOX IMVI; 28.6 µM (inactive) with SK-OV-3; 21.9 µM (inactive) in the test on SF-539; 27.4 µM (inactive) in the test with SNB-19; 33.3 µM (inactive) with SW-620. Besides, the GI50 in the test with Hs-578T was 27.3 µM (inactive); in the test with IGROV-1 it was 22.6 µM (inactive); in the test on RPMI-8226, 23.8 µM (inactive); in the test on EKVX it was 14.4 µM (inactive); in the test on ACHN it was 28 µM (inactive); in the test with Malme-3M, 35.2 µM (inactive). The GI50 is 19.8 µM (inactive) in the test on SK-MEL-2; 17.8 µM (inactive) in the test with COLO 205; 29.3 µM (inactive) with PC-3; 27.9 µM (inactive) in the test with TK-10; 27.9 µM (inactive) with MOLT-4; 21.8 µM (inactive) in the test on NCI/ADR-RES. Also, the GI50 in the test with K562 is 33.7 µM (inactive).

For the compound `CCOC(=O)Cn1c(C)nc2nn(Cc3ccccc3)cc2c1=O`, the GI50 in the test with SK-MEL-28, in the test on SK-OV-3, in the test with SF-539, in the test on SNB-19, in the test with SW-620 and in the test with Hs-578T was > 100 µM (inactive) each time. For the same compound, the GI50 in the test on IGROV-1, in the test on EKVX, with ACHN, in the test with Malme-3M, in the test with SK-MEL-2 and in the test on PC-3 was > 100 µM (inactive) each time. The GI50 in the test on TK-10, in the test with MOLT-4, in the test with NCI/ADR-RES and in the test on K562 was > 100 µM (inactive) in each case.

In the case of `COc1cccc2c1OC(c1ccc(C#N)cc1)C([N+](=O)[O-])=C2` (stereo not drawn), the GI50 in the test with SK-MEL-28 was 2.28 µM (inactive); with LOX IMVI, 1.91 µM (inactive); in the test with SK-OV-3, 3.23 µM (inactive); in the test on SF-539, 1.91 µM (inactive); in the test on SNB-19, 6.46 µM (inactive); with SW-620, 1.42 µM (inactive). Moreover, the GI50 was 1.78 µM (inactive) in the test on Hs-578T; 0.908 µM (active) in the test with CAKI-1; 1.92 µM (inactive) with IGROV-1; 6.24 µM (inactive) in the test on EKVX; 1.77 µM (inactive) with ACHN; 1.61 µM (inactive) with Malme-3M. Further, the GI50 with SK-MEL-2 was 2.01 µM (inactive); in the test with COLO 205 it was 1.74 µM (inactive); in the test with PC-3 it was 1.88 µM (inactive); in the test on TK-10, 3.11 µM (inactive); in the test with NCI/ADR-RES, > 100 µM (inactive); in the test with K562, 1.21 µM (inactive).
